The text below walks through data of US20240398812A1 (Caraway Therapeutics, Inc., priority 2021, published 2024).

SMILES strings stand for the structures.

In one assay the target is human TRPML1 (Homo sapiens, UniProt Q9GZU1). Briefly: Fluorescent TRPML1 assay (Fluo4-AM calcium fluorescence, HEK-293 Trex cells). The class given is cell-based. Here is the method: (§1) HEK-293 Trex cells were stably transfected with a construct consisting of the human coding sequence for TRPML1 cloned into the tet-inducible plasmid pCDNA5 T/O. Mutations were introduced into the TRPML1 sequence to facilitate expression on the cell surface (Silvia Vergarajauregui, Rosa Puertollano Traffic. 2006 March; 7 (3): 337-353). Briefly, the cells are cultured in 150 mm round tissue culture dishes containing 20 mL of media. The day before the assay the cells are rinsed with DPBS —Ca—Mg and then treated briefly with Trypsin-EDTA. The Trypsin-EDTA is diluted with growth media, and cells are counted. 38×10^6 cells are re-plated into 150 mm round tissue culture dishes in media containing 0.5 ug/mL doxycycline to induce expression of hTRPML1.
Sequence of human TRPML1 (Q9GZU1 whole entry L15A/L16A/L577A/L578A, form open): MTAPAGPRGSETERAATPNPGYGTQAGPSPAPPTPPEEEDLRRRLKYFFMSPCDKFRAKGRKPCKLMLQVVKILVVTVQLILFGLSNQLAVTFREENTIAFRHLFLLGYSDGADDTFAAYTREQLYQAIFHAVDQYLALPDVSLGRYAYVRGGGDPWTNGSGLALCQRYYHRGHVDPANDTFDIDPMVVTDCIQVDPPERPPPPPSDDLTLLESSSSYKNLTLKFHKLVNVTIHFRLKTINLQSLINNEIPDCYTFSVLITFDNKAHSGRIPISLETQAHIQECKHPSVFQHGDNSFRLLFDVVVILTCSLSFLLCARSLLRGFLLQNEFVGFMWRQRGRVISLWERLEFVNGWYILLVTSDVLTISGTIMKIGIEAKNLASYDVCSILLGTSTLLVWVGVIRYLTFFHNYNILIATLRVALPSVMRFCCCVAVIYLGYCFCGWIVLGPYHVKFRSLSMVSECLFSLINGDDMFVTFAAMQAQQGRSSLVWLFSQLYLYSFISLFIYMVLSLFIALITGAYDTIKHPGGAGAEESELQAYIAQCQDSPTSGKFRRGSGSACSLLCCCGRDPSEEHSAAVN
(§2) The day of the experiment cells are lifted from the plates as above and collected by centrifugation. The cells are then suspended in dye loading buffer consisting of Ringer's solution supplemented with 0.1% Pluronic Acid and 1 micromolar Fluo4-AM dye. Cells are loaded for ˜60 minutes in the dark with occasional mixing. The cells are collected by centrifugation, the loading media aspirated, and the cells resuspended in 25 mL Ringer's solution and incubated ˜60 minutes in the dark. The cells are again collected by centrifugation, rinsed in Ringer's Solution and resuspended to 0.2×10^6 cells/mL in modified Ringer's solution containing 10 mM calcium.
(§3) Compounds are dissolved to a concentration of 10 millimolar with DMSO. Compound plates are created by dispensing compounds into 384 well black wall clear bottom plates (Greiner 781091). Positive and negative controls are included on each plate. Typically, different amounts of each compound are tested ranging from 100 nanoMoles (20 micromolar final concentration) decreasing in half-log steps to 31 picoMoles (6 nanomolar final concentration). Each concentration is typically tested in triplicate.
(§4) 50 microliters of dye-loaded cells are dispensed into each well of the compound assay plate created above. The fluorescence in each well is then determined with an excitation wavelength of 480 nm and an emission wavelength of 540 nm using either a Molecular Devices SpectraMax multimode plate reader or a Hamamatsu FDSS/uCell plate imager.
(§5) The resulting fluorescence for each well is exported as an ascii file and loaded into our LIMS for analysis. The percent activity of each compound at each concentration is determined by comparison to the positive and negative control wells included in each plate.
(§6) EC50 values were calculated using a non-linear regression of Prism. In the table, “A” indicates an EC50 of less than 100 nM, “B” indicates an EC50 range from 100 nM to 500 nM; “C” indicates an EC50 range from 500 nM to 2 μM; and “D” indicates an EC50 greater than 2 μM.

The target in another assay is T1, TRPML3 (Homo sapiens, UniProt Q8TDD5).
T1 construct: expressed in transfected cells
T1 sequence (Q8TDD5 1-553): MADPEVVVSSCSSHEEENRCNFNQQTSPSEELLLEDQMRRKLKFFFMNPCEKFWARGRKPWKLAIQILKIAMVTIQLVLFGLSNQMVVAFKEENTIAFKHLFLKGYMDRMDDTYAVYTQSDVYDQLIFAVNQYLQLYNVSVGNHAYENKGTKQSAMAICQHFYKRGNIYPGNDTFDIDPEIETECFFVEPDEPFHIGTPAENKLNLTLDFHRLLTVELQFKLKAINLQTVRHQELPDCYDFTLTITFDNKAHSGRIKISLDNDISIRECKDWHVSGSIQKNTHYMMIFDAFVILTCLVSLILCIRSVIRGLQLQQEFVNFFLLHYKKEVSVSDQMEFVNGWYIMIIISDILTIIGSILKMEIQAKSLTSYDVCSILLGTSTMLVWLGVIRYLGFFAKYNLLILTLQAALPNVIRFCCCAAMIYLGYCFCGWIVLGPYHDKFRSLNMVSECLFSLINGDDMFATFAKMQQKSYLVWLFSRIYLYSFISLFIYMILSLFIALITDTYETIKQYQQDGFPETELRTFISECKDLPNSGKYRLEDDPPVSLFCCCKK
Briefly: Fluorescent TRPML3 assay (as for TRPML1). The assay is classed as cell-based. The procedure: as §1, §2, §3, §4, §5
Assays for TRPML2 and TRPML3 were performed as above for TRPML1, by substituting the appropriate TRPML2 or TRPML3 subtype for the TRPML1.
as §6

For the compound `CC(C)C(=O)N1CCN(c2ncnc3c2c(-c2ccccc2F)cn3-c2nccc(C#N)n2)[C@@H](C)C1` [Compound 156, (S)-2-(5-(2-fluorophenyl)-4-(4-isobutyryl-2-methylpiperazin-1-yl)-7H-pyrrolo[2,3-d]pyrimidin-7-yl)pyrimidine-4-carbonitrile], the EC50 at human TRPML1 (Table 3, compounds 101-177) was 500 to 2000 nM; at TRPML3 (Table 3, compounds 101-177), 500 to 2000 nM.

Turning to `CC(C)C(=O)N1CCN(c2ncnc3c2c(-c2ccccc2F)cn3-c2cc(C#N)n(C)c2)[C@@H](C)C1` [Compound 157, (S)-4-(5-(2-fluorophenyl)-4-(4-isobutyryl-2-methylpiperazin-1-yl)-7H-pyrrolo[2,3-d]pyrimidin-7-yl)-1-methyl-1H-pyrrole-2-carbonitrile], the EC50 was in the range of 100 to 500 nM on human TRPML1 (Table 3, compounds 101-177) and 500 to 2000 nM on TRPML3 (Table 3, compounds 101-177).

Take `C[C@H]1CN(C(=O)C(C)(C)O)CCN1c1ncnc2c1c(-c1ccccc1F)cn2-c1cc(C#N)ccn1` [Compound 159, (S)-2-(5-(2-fluorophenyl)-4-(4-(2-hydroxy-2-methylpropanoyl)-2-methylpiperazin-1-yl)-7H-pyrrolo[2,3-d]pyrimidin-7-yl)isonicotinonitrile]: the EC50 is less than 100 nM on human TRPML1 (Table 3, compounds 101-177) and 100 to 500 nM on TRPML3 (Table 3, compounds 101-177).

`C[C@H]1CN(C(=O)C(C)(C)O)CCN1c1ncnc2c1c(C1CC1)cn2-c1cc(C#N)ccn1` [Compound 160, (S)-2-(5-cyclopropyl-4-(4-(2-hydroxy-2-methylpropanoyl)-2-methylpiperazin-1-yl)-7H-pyrrolo[2,3-d]pyrimidin-7-yl)isonicotinonitrile]: the EC50 was 100 to 500 nM on human TRPML1 (Table 3, compounds 101-177) and more than 2000 nM at TRPML3 (Table 3, compounds 101-177).

For the compound `C[C@H]1CN(C(=O)C(C)(C)O)CCN1c1ncnc2c1c(N1CCC1)cn2-c1cc(C#N)ccn1` [Compound 162, (S)-2-(5-(azetidin-1-yl)-4-(4-(2-hydroxy-2-methylpropanoyl)-2-methylpiperazin-1-yl)-7H-pyrrolo[2,3-d]pyrimidin-7-yl)isonicotinonitrile], the EC50 is 100 to 500 nM on human TRPML1 (Table 3, compounds 101-177) and 500 to 2000 nM on TRPML3 (Table 3, compounds 101-177).

For `CCCN(CC)c1cn(-c2cc(C#N)ccn2)c2ncnc(N3CCN(C(=O)C(C)C)C[C@@H]3C)c12` [Compound 163, (S)-2-(5-(ethyl(propyl)amino)-4-(4-isobutyryl-2-methylpiperazin-1-yl)-7H-pyrrolo[2,3-d]pyrimidin-7-yl)isonicotinonitrile], the 50% effective concentration (EC50) at human TRPML1 (Table 3, compounds 101-177) is less than 100 nM; at TRPML3 (Table 3, compounds 101-177) it was 100 to 500 nM.

As to `CCCN(CC)c1cn(-c2cc(C#N)ccn2)c2ncnc(N3CCN(C(=O)C(C)(C)C)C[C@@H]3C)c12` [Compound 164], the EC50 was less than 100 nM at human TRPML1 (Table 3, compounds 101-177) and less than 100 nM on TRPML3 (Table 3, compounds 101-177).

`CC(C)C(=O)N1C[C@H](C)N(c2ncnc3c2c(-c2ccccc2F)cn3-c2cc(F)ccn2)C[C@H]1C` [Compound 167, 1-((2R,5S)-4-(5-(2-fluorophenyl)-7-(4-fluoropyridin-2-yl)-7H-pyrrolo[2,3-d]pyrimidin-4-yl)-2,5-dimethylpiperazin-1-yl)-2-methylpropan-1-one]: the EC50 on human TRPML1 (Table 3, compounds 101-177) is less than 100 nM; on TRPML3 (Table 3, compounds 101-177) it was less than 100 nM.

Consider `CC(C)C(=O)N1C[C@H](C)N(c2ncnc3c2c(-c2ccccc2F)cn3-c2cc(Cl)ccn2)C[C@H]1C` [Compound 168, 1-((2R,5S)-4-(7-(4-chloropyridin-2-yl)-5-(2-fluorophenyl)-7H-pyrrolo[2,3-d]pyrimidin-4-yl)-2,5-dimethylpiperazin-1-yl)-2-methylpropan-1-one], for which the EC50 was less than 100 nM at human TRPML1 (Table 3, compounds 101-177) and less than 100 nM at TRPML3 (Table 3, compounds 101-177).

As for `C[C@@H]1CN(c2ncnc3c2c(-c2ccccc2F)cn3-c2cc(F)ccn2)[C@@H](C)CN1C(=O)C(C)(C)O` [Compound 169, 1-((2R,5S)-4-(5-(2-fluorophenyl)-7-(4-fluoropyridin-2-yl)-7H-pyrrolo[2,3-d]pyrimidin-4-yl)-2,5-dimethylpiperazin-1-yl)-2-hydroxy-2-methylpropan-1-one], the 50% effective concentration (EC50) was less than 100 nM on human TRPML1 (Table 3, compounds 101-177) and 100 to 500 nM at TRPML3 (Table 3, compounds 101-177).

As to `CC(C)C(=O)N1CCN(c2ncnc3c2c(-c2ccccc2F)cn3-c2cc(C#N)cnn2)[C@@H](C)C1` [Compound 171, (S)-6-(5-(2-fluorophenyl)-4-(4-isobutyryl-2-methylpiperazin-1-yl)-7H-pyrrolo[2,3-d]pyrimidin-7-yl)pyridazine-4-carbonitrile], the EC50 at human TRPML1 (Table 3, compounds 101-177) lay within 100 to 500 nM; at TRPML3 (Table 3, compounds 101-177), 100 to 500 nM.

Regarding `Cc1nccnc1-c1cn(-c2cc(C#N)ccn2)c2ncnc(N3C[C@@H](C)N(C(=O)C(C)C)C[C@@H]3C)c12` [Compound 172, 2-(4-((2S,5R)-4-isobutyryl-2,5-dimethylpiperazin-1-yl)-5-(3-methylpyrazin-2-yl)-7H-pyrrolo[2,3-d]pyrimidin-7-yl)isonicotinonitrile], the concentration giving a half-maximal response (EC50) at human TRPML1 (Table 3, compounds 101-177) is 500 to 2000 nM; at TRPML3 (Table 3, compounds 101-177) it was more than 2000 nM.

On to `CC(C)(O)C(=O)N1CCN(c2ncnc3c2c(-c2ccccc2F)cn3-c2cc(C#N)ccn2)C2(CC2)C1` [Compound 174, 2-(5-(2-fluorophenyl)-4-(7-(2-hydroxy-2-methylpropanoyl)-4,7-diazaspiro[2.5]octan-4-yl)-7H-pyrrolo[2,3-d]pyrimidin-7-yl)isonicotinonitrile], for which the concentration for a half-maximal effect (EC50) was less than 100 nM on human TRPML1 (Table 3, compounds 101-177) and less than 100 nM at TRPML3 (Table 3, compounds 101-177).

As for `Cc1nccnc1-c1cn(-c2cccc(Cl)c2)c2ncnc(N3C[C@@H](C)N(C(=O)C(C)C)C[C@@H]3C)c12` [Compound 175, 1-((2R,5S)-4-(7-(3-chlorophenyl)-5-(3-methylpyrazin-2-yl)-7H-pyrrolo[2,3-d]pyrimidin-4-yl)-2,5-dimethylpiperazin-1-yl)-2-methylpropan-1-one], the EC50 at human TRPML1 (Table 3, compounds 101-177) was 500 to 2000 nM; at TRPML3 (Table 3, compounds 101-177) it was more than 2000 nM.

With `Cc1nccnc1-c1cn(-c2cccc(Cl)c2)c2ncnc(N3C[C@@H](C)N(C(=O)CC(C)C)C[C@@H]3C)c12` [Compound 176, 1-((2R,5S)-4-(7-(3-chlorophenyl)-5-(3-methylpyrazin-2-yl)-7H-pyrrolo[2,3-d]pyrimidin-4-yl)-2,5-dimethylpiperazin-1-yl)-3-methylbutan-1-one], the EC50 was 500 to 2000 nM on human TRPML1 (Table 3, compounds 101-177) and more than 2000 nM on TRPML3 (Table 3, compounds 101-177).

`Cc1nccnc1-c1cn(-c2cc(F)cc(F)c2)c2ncnc(N3C[C@@H](C)N(C(=O)CC(C)C)C[C@@H]3C)c12` [Compound 177, 1-((2R,5S)-4-(7-(3,5-difluorophenyl)-5-(3-methylpyrazin-2-yl)-7H-pyrrolo[2,3-d]pyrimidin-4-yl)-2,5-dimethylpiperazin-1-yl)-3-methylbutan-1-one]: the half-maximal effective concentration (EC50) was 500 to 2000 nM on human TRPML1 (Table 3, compounds 101-177) and more than 2000 nM at TRPML3 (Table 3, compounds 101-177).

For the compound `C[C@@H]1CN(c2ncnc3c2c(C2CC2)cn3-c2cc(F)cc(F)c2)[C@@H](C)CN1C(=O)C(C)(C)C` [Compound 205, 1-((2R,5S)-4-(5-cyclopropyl-7-(3,5-difluorophenyl)-7H-pyrrolo[2,3-d]pyrimidin-4-yl)-2,5-dimethylpiperazin-1-yl)-2,2-dimethylpropan-1-one], the EC50 at human TRPML1 (Table 3, compounds 201-283) is less than 100 nM; at TRPML3 (Table 3, compounds 201-283) it was 100 to 500 nM.

With `COC(C)(C)C(=O)N1CCN(c2ncnc3c2c(C(F)(F)F)cn3-c2cc(C#N)ccn2)[C@@H](C)C1` [Compound 210, (S)-2-(4-(4-(2-methoxy-2-methylpropanoyl)-2-methylpiperazin-1-yl)-5-(trifluoromethyl)-7H-pyrrolo[2,3-d]pyrimidin-7-yl)isonicotinonitrile], the EC50 on human TRPML1 (Table 3, compounds 201-283) was 100 to 500 nM; on TRPML3 (Table 3, compounds 201-283), 500 to 2000 nM.
